According to patent US20120245137A1 (Zalicus Pharmaceuticals Ltd., priority 2009, published 2012):
Read-outs that look alike come from different tables or passages of the source.

How the values were obtained:
Assay type in all cases: cell-based
[1] = molecular target: T-type calcium channel (Homo sapiens, UniProt O95180); test: T-type channel blocking, FLIPR data (Table 6); settings: for CAv3.2 IC50 Ratio closed/inact.: CAv3.2, ratio closed/inactivated IC50
Description: (§1) Another method, high-throughput spectrophotometric assay, utilizes loading of the cell lines with a fluorescent dye sensitive to intracellular calcium concentration and subsequent examination of the effects of compounds on the ability of depolarization by potassium chloride or other means to alter intracellular calcium levels.

[2] = molecular target: T-type calcium channel (Homo sapiens, UniProt O43497); test: T-type channel blocking, FLIPR data (Table 6); settings: CAv3.1
Description: as §1

[3] = molecular target: Human Cav 2.2 channels (Homo sapiens, UniProt Q00975); test: Fluorescent assay for CaV2.2 channels using potassium depolarization (VIPR/FLIPR); settings: FLIPR data; for CAv2.2 IC50 Ratio closed/inact.: ratio closed/inactivated IC50
Human Cav 2.2 channels, sequence (Q00975 whole entry): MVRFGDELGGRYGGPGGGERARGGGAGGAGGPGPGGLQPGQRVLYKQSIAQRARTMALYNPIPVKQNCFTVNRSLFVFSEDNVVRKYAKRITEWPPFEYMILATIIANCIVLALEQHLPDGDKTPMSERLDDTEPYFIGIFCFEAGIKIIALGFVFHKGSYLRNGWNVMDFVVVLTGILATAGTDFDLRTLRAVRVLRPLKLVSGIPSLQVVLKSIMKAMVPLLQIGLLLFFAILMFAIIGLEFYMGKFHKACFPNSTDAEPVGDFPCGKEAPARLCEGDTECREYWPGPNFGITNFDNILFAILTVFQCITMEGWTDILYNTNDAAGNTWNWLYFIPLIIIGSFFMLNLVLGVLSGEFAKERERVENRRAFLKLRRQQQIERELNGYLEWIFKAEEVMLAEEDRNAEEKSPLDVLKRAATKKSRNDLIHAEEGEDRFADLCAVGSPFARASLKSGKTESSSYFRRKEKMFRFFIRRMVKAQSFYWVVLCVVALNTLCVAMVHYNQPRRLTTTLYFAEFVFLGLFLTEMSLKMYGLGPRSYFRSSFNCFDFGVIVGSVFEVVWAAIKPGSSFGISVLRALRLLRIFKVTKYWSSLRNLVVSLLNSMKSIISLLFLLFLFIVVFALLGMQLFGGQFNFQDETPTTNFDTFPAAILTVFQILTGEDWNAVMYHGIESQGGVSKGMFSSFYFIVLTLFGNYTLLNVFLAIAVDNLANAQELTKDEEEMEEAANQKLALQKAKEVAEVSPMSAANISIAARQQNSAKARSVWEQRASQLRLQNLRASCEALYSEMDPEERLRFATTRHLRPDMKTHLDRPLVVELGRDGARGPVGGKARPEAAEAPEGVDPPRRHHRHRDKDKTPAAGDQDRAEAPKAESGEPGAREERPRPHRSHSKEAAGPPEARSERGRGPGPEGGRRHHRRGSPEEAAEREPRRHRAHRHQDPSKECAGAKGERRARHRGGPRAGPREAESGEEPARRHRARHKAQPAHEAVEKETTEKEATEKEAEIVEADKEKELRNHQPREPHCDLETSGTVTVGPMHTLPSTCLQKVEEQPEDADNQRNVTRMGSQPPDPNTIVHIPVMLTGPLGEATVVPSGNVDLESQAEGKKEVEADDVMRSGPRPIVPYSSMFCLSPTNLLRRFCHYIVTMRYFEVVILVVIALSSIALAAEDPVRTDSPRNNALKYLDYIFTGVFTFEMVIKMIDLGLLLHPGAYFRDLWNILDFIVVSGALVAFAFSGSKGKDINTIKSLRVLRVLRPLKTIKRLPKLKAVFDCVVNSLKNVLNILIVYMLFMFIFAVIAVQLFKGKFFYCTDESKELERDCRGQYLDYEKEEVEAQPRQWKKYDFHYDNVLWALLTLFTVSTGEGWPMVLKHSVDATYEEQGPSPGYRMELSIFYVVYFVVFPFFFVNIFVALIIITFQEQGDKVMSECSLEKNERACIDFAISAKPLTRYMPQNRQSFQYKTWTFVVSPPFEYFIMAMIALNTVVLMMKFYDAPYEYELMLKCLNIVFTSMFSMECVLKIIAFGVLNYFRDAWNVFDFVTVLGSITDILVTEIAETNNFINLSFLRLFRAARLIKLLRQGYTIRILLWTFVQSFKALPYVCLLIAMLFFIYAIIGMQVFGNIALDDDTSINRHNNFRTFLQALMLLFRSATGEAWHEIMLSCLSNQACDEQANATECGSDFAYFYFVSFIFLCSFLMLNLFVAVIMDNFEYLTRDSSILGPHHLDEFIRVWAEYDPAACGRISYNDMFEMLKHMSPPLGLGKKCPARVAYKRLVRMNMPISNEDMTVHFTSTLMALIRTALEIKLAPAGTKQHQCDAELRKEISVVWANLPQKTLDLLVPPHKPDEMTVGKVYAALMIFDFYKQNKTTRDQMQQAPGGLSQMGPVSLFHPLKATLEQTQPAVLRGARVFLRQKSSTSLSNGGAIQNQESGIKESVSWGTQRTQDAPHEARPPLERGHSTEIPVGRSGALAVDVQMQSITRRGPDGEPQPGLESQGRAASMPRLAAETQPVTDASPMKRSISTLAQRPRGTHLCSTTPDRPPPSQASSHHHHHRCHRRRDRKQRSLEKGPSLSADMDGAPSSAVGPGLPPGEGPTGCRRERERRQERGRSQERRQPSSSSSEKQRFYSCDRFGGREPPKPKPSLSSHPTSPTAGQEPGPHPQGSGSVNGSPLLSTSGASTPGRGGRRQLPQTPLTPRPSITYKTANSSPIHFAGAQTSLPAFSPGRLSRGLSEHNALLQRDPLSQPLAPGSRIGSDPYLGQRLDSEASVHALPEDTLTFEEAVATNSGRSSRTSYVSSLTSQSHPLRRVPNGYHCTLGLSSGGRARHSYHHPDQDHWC
Human Cav 2.2 channels, sequence (P54289 25-1103 partner): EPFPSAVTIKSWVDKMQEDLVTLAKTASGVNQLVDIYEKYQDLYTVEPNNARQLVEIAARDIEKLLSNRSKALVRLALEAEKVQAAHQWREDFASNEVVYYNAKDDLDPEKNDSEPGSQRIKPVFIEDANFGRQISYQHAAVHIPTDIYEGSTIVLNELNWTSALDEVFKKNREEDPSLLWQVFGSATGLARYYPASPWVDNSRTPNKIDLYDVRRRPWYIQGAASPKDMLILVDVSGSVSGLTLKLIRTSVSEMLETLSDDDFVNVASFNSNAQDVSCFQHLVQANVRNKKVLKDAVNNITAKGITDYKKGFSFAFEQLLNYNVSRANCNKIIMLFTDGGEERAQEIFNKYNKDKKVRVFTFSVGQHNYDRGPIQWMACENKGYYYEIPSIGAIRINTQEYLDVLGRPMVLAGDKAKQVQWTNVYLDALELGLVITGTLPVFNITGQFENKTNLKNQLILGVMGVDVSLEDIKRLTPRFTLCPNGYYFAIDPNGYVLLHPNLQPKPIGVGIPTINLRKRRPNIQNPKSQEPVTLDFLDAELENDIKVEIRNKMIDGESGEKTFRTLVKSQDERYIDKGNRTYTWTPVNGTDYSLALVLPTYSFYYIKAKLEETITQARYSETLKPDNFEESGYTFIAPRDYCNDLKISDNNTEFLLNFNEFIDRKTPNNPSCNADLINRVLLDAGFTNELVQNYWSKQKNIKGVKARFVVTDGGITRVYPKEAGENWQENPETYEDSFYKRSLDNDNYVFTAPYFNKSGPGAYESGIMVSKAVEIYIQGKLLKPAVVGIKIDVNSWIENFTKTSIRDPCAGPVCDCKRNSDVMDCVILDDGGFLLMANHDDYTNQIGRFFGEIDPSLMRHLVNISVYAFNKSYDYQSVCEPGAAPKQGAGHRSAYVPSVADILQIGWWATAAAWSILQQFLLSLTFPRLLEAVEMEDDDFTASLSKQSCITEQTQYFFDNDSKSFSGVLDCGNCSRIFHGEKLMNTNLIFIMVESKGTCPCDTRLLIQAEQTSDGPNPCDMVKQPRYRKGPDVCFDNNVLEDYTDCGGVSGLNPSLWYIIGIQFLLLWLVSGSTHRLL
Human Cav 2.2 channels, sequence (P54284 whole entry partner): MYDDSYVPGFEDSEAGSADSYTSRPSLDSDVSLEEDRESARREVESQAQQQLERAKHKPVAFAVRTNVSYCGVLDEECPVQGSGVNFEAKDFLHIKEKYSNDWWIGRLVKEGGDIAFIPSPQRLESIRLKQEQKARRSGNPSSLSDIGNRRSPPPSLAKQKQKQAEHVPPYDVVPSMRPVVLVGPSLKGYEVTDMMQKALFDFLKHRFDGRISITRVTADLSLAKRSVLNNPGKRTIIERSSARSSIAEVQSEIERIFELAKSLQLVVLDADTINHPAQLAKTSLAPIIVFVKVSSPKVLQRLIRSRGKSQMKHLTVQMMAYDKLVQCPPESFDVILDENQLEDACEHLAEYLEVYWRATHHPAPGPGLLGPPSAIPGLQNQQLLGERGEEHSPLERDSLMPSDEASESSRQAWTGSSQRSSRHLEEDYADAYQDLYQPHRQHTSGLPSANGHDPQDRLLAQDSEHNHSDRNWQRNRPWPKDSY
In short: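 HEK293 cells stably expressing human Cav2.2 with α2δ and β subunits plus Kir2.3 were loaded with fluo-4 and incubated 30 min at 25 °C with compound in 4, 12, 25 or 30 mM potassium buffer. Channels were opened with 70 mM potassium (final) and calcium influx was read by fluorescence (Ex 480/Em 535 nm).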

[4] = molecular target: CAv1.2 (Homo sapiens, UniProt Q13936); test: FLIPR data, CAv1.2 channel blocking (Table 6); settings: for CAv1.2 IC50 Ratio closed/inact.: ratio closed/inactivated IC50
[5] = CAv3.2, closed state, read-out: CAv3.2 IC50 Closed
[6] = CAv3.2, inactivated state, read-out: CAv3.2 IC50 Inact.
[7] = closed state, read-out: CAv2.2 IC50 Closed
[8] = inactivated state, read-out: CAv2.2 IC50 Inact.
[9] = closed state, read-out: CAv1.2 IC50 Closed
[10] = inactivated state, read-out: CAv1.2 IC50 Inact.

Row | SMILES | IC50 [1, 5] | IC50 [1, 6] | CAv3.2 IC50 Ratio closed/inact. [1] | IC50 [2] | IC50 [3, 7] | IC50 [3, 8] | CAv2.2 IC50 Ratio closed/inact. [3] | IC50 [4, 9] | IC50 [4, 10] | CAv1.2 IC50 Ratio closed/inact. [4]
1 | CC(C)([C@H]1C[C@@H](NC(=O)c2ccc(C(F)(F)F)cc2)C1)S(=O)(=O)c1cccc(C(F)(F)F)c1 [Compound 581] | 3.07 µM | 0.66 µM | 4.7 | 4.84 µM | 2.43 µM | 0.13 µM | 18.7 | 3.87 µM | 1.48 µM | 2.6
2 | CC(C)([C@H]1C[C@@H](NS(=O)(=O)c2ccc(C(F)(F)F)cc2)C1)S(=O)(=O)c1cc(F)cc(C(F)(F)F)c1 [Compound 598] | ≥ 10 µM | 4.56 µM | 2.2 | 7.56 µM | 5.74 µM | 0.7 µM | 8.2 | 9.38 µM | 2.83 µM | 3.3
3 | CC(C)([C@H]1C[C@@H](CNC(=O)c2ccc(Cl)c(OC(F)(F)F)c2)C1)S(=O)(=O)c1cccc(C(F)(F)F)c1 [Compound 688] | 0.45 µM | 0.17 µM | 2.6 | 0.25 µM | 3.4 µM | 0.22 µM | 15.5 | 4.59 µM | 0.45 µM | 10.2
4 | CC(C)([C@H]1C[C@H](NS(=O)(=O)c2ccc(C(F)(F)F)nc2)C1)S(=O)(=O)c1cc(F)cc(C(F)(F)F)c1 [Compound 609] | ≥ 10 µM | 2.54 µM | 3.9 | 9.91 µM | 4.17 µM | 1.17 µM | 3.6 | 9.99 µM | 4.32 µM | 2.3
5 | CC(C)([C@H]1C[C@@H](CNC(=O)c2ccc(OCC(F)(F)F)nc2)C1)S(=O)(=O)c1cccc(C(F)(F)F)c1 [Compound 686] | 1.2 µM |  |  | 1.17 µM | 2.47 µM | 0.26 µM | 9.5 | 4.42 µM | 1.1 µM | 4
6 | CC(C)([C@H]1C[C@@H](CNc2ccnc(C(F)(F)F)n2)C1)S(=O)(=O)c1cccc(C(F)(F)F)c1 [Compound 691] | 7.35 µM |  |  | 5.83 µM | 4.03 µM | 0.53 µM | 7.6 | 4.94 µM | 2.22 µM | 2.2
7 | CC(C)([C@H]1C[C@@H](NC(=O)c2ccc(Cl)cn2)C1)S(=O)(=O)c1cccc(C(F)(F)F)c1 [Compound 578] | 7.71 µM | 5.3 µM | 1.5 | ≥ 10 µM | 3.46 µM | 0.46 µM | 7.5 | 9.07 µM | 8.38 µM | 1.1
8 | CC(C)([C@H]1C[C@H](NS(=O)(=O)c2ccc(OC(F)(F)F)cc2)C1)S(=O)(=O)c1cc(F)cc(C(F)(F)F)c1 [Compound 610] | ≥ 10 µM | 1.43 µM | 7 | 5.3 µM | 3.58 µM | 1.13 µM | 3.2 | 8.93 µM | 2.93 µM | 3
9 | CNC1(CC(=O)NCc2ccc(S(=O)(=O)c3cccc(C(F)(F)F)c3)cc2)CCCCC1 [Compound 660] | ≥ 10 µM | 10 µM | 1 | ≥ 10 µM | 3.56 µM | 0.61 µM | 5.8 | 7.48 µM | 4.93 µM | 1.5
10 | Cn1nc(C(F)(F)F)cc1C(=O)N[C@H]1C[C@H](CC(C)(C)S(=O)(=O)c2cccc(C(F)(F)F)c2)C1 [Compound 725] | 2.31 µM | 0.68 µM | 3.4 | 3.6 µM | 1.63 µM | 0.14 µM | 11.6 | 6.7 µM | 2.78 µM | 2.4
11 | O=C(NC[C@H]1C[C@H](S(=O)(=O)c2cc(F)cc(C(F)(F)F)c2)C1)c1ccnc(C(F)(F)F)n1 [Compound 710] | ≥ 10 µM | 10 µM | 1 | ≥ 10 µM | 5.01 µM | 1.49 µM | 3.4 | ≥ 10 µM | ≥ 10 µM | 
12 | CC(C)([C@H]1C[C@@H](NC(=O)CC2(N)CCCCC2)C1)S(=O)(=O)c1cc(F)cc(C(F)(F)F)c1 [Compound 653] |  | 10 µM |  | ≥ 10 µM | 10 µM | 1.36 µM | 7.4 |  | ≥ 10 µM | 
13 | CC(C)([C@H]1C[C@H](NS(=O)(=O)c2ccc(Cl)c(F)c2)C1)S(=O)(=O)c1cc(F)cc(C(F)(F)F)c1 [Compound 607] | ≥ 10 µM | 3.73 µM | 2.7 | 5.43 µM | 2.97 µM | 1.15 µM | 2.6 | 7.78 µM | 2.99 µM | 2.6
14 | O=C(NC[C@H]1C[C@H](S(=O)(=O)c2cc(F)cc(C(F)(F)F)c2)C1)c1ccc(OCC(F)(F)F)nc1 [Compound 706] | 4.02 µM | 0.74 µM | 5.4 | 2.87 µM | 3.95 µM | 0.85 µM | 4.6 | 7.98 µM | 3.09 µM | 2.6
15 | CC(C)(C[C@H]1C[C@@H](NC(=O)c2ccc(C(F)(F)F)nc2)C1)S(=O)(=O)c1cccc(C(F)(F)F)c1 [Compound 736] | 6.64 µM | 2.73 µM | 2.4 | ≥ 10 µM | 2.2 µM | 0.13 µM | 16.9 | ≥ 10 µM | 3.32 µM | 3

Second part, led by results:

Row | IC50 [1, 5] | IC50 [1, 6] | CAv3.2 IC50 Ratio closed/inact. [1] | IC50 [2] | IC50 [3, 7] | IC50 [3, 8] | CAv2.2 IC50 Ratio closed/inact. [3] | SMILES | IC50 [4, 9] | IC50 [4, 10] | CAv1.2 IC50 Ratio closed/inact. [4]
16 | 5.49 µM | 6.38 µM | 0.9 | 4.24 µM | 6.79 µM | 0.21 µM | 32.3 | CC(C)S(=O)(=O)c1cc(C(F)(F)F)cnc1C(=O)N[C@H]1C[C@H](C(C)(C)S(=O)(=O)c2cccc(OC(F)(F)F)c2)C1 [Compound 638] | ≥ 10 µM | 6.11 µM | 1.6
17 | 9.97 µM | 6.08 µM | 1.6 | 4.69 µM | 8.49 µM | 0.24 µM | 35.4 | CC(C)S(=O)(=O)c1cc(C(F)(F)F)cnc1C(=O)N[C@H]1C[C@@H](C(C)(C)S(=O)(=O)c2cccc(OC(F)(F)F)c2)C1 [Compound 645] | ≥ 10 µM | 6.8 µM | 1.5
18 | 4.22 µM | 5.44 µM | 0.8 | 9.97 µM | 10 µM | 0.38 µM | 26.3 | CC(C)([C@H]1C[C@H](NC(=O)c2ccc(C(F)(F)F)cc2S(C)(=O)=O)C1)S(=O)(=O)c1cccc(OC(F)(F)F)c1 [Compound 636] | ≥ 10 µM | 5.24 µM | 1.9
19 | 9.28 µM | 3.95 µM | 2.3 | ≥ 10 µM | 8.54 µM | 0.54 µM | 15.8 | CC(C)(C1CC(CNC(=O)c2ccc(C(F)(F)F)cc2S(C)(=O)=O)C1)S(=O)(=O)c1cccc(C(F)(F)F)c1 (centres unmarked) [Compound 612] | ≥ 10 µM | 4.17 µM | 2.4
20 | 0.7 µM | 0.81 µM | 0.9 | 1.55 µM | 2.21 µM | 0.22 µM | 10 | CC(C)([C@H]1C[C@H](NC(=O)c2ccc(F)c(Cl)c2)C1)S(=O)(=O)c1cccc(OC(F)(F)F)c1 [Compound 634] | 5.92 µM | 0.6 µM | 9.9
21 | 3.73 µM | 2.16 µM | 1.7 | 2.33 µM | 10 µM | 0.68 µM | 14.7 | CC(C)([C@H]1C[C@@H](NS(=O)(=O)c2ccc(OC(F)(F)F)cc2)C1)S(=O)(=O)c1cccc(C(F)(F)F)c1 [Compound 630] | ≥ 10 µM | 3.11 µM | 3.2
22 | ≥ 10 µM | 10 µM | 1 | ≥ 10 µM | 10 µM | 0.58 µM | 17.2 | CC(C)([C@H]1C[C@H](NC(=O)c2ncc(C(F)(F)F)cc2S(C)(=O)=O)C1)S(=O)(=O)c1cccc(OC(F)(F)F)c1 [Compound 637] |  | ≥ 10 µM | 
